Laboratory results as given in paper PMC10096035, “Switching from Aromatase Inhibitors to Dual Targeting Flavonoid-Based Compounds for Breast Cancer Treatment” (Molecules, 2023).

Biological target: T1, ERα (Estrogen Receptor α) (Homo sapiens, UniProt P03372)
T1 construct: gene ESR1; purified ERα supplied with the PolarScreen kit (Invitrogen); construct not described
T1 sequence (P03372 1-595): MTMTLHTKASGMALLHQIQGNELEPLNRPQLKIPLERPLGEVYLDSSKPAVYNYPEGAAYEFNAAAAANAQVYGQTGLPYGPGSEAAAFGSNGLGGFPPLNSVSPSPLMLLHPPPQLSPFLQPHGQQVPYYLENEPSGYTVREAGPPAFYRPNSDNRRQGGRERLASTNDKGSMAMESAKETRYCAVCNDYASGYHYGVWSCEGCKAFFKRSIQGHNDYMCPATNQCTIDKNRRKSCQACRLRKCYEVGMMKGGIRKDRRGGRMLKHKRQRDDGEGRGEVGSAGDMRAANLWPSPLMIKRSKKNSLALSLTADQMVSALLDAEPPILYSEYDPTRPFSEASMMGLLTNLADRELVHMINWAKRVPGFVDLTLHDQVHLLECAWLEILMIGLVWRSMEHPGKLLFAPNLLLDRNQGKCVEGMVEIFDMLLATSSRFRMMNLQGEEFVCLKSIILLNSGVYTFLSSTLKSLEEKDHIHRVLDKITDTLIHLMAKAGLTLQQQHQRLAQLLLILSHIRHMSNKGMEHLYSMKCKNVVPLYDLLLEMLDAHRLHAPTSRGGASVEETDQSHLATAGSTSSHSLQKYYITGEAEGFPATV
Experiment: fluorescence polarization competition (PolarScreen)
Conditions: read-out: ERα Binding IC50 μM ^1
From the text: fluorescence polarization competition (PolarScreen) on ERα (Estrogen Receptor α)

IC50 [µM] | Compound
0.203 | O=c1c(C(c2ccccc2)n2ccnc2)coc2cc(O)ccc12 (racemic) [4b, 3-((1H-imidazol-1-yl)(phenyl)methyl)-7-hydroxy-4H-chromen-4-one]
> 10 | O=c1c(Cn2ccnc2)c(-c2ccccc2)oc2cc(O)ccc12 [2b, 3-((1H-imidazol-1-yl)methyl)-7-hydroxy-2-phenyl-4H-chromen-4-one]
> 10 | O=c1c(Cn2ccnc2)c(-c2ccc([N+](=O)[O-])cc2)oc2cc(O)ccc12 [2a, 3-((1H-imidazol-1-yl)methyl)-7-hydroxy-2-(4-nitrophenyl)-4H-chromen-4-one]
0.595 | O=c1c(C(c2ccc([N+](=O)[O-])cc2)n2ccnc2)coc2cc(O)ccc12 (racemic) [4a, 3-((1H-imidazol-1-yl)(4-nitrophenyl)methyl)-7-hydroxy-4H-chromen-4-one]
0.31 | O=c1c(C(c2ccccc2)n2ccnc2)coc2ccccc12 (racemic) [3b, 3-((1H-imidazol-1-yl)(phenyl)methyl)-4H-chromen-4-one]
> 10 | O=c1c(C(c2ccc([N+](=O)[O-])cc2)n2ccnc2)coc2ccccc12 (racemic) [3a]

More lines, now with the values behind:

Compound | IC50 [µM]
O=c1c(Cn2ccnc2)c(-c2ccccc2)oc2ccccc12 [1b] | > 10
N#Cc1ccc(C(c2ccc(C#N)cc2)n2cncn2)cc1 [Letrozole] | > 10
CC/C(=C(\c1ccc(O)cc1)c1ccc(OCCNC)cc1)c1ccccc1 [Endoxifen] | 0.043
O=c1c(Cn2ccnc2)c(-c2ccc([N+](=O)[O-])cc2)oc2ccccc12 [1a] | > 10

Biological target: T2, aromatase (AR; CYP19A) (Homo sapiens, UniProt P11511)
T2 construct: gene CYP19A1; construct not described
T2 sequence (P11511 1-503): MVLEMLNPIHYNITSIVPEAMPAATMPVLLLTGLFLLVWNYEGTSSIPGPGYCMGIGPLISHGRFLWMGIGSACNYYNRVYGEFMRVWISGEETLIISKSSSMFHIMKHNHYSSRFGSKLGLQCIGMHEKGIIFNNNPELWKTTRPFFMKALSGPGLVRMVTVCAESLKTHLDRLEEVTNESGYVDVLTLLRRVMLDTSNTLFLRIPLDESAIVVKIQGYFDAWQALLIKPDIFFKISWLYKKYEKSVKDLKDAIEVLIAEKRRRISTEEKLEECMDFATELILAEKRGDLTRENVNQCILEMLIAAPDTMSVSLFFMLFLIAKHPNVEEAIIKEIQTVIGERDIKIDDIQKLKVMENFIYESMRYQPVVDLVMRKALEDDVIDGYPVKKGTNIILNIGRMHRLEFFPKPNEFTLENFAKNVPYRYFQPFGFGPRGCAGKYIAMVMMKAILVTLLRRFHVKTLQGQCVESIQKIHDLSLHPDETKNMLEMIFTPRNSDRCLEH
Experiment: fluorometric aromatase inhibition kit
Type: biochemical
Conditions: read-out: AR Inhibition IC50 μM ^1
From the text: fluorometric aromatase inhibition kit on aromatase (AR; CYP19A)

IC50 [µM] | Compound
2.2 | O=c1c(C(c2ccccc2)n2ccnc2)coc2cc(O)ccc12 (racemic) [4b, 3-((1H-imidazol-1-yl)(phenyl)methyl)-7-hydroxy-4H-chromen-4-one]
4 | O=c1c(Cn2ccnc2)c(-c2ccccc2)oc2cc(O)ccc12 [2b, 3-((1H-imidazol-1-yl)methyl)-7-hydroxy-2-phenyl-4H-chromen-4-one]
2.1 | O=c1c(Cn2ccnc2)c(-c2ccc([N+](=O)[O-])cc2)oc2cc(O)ccc12 [2a, 3-((1H-imidazol-1-yl)methyl)-7-hydroxy-2-(4-nitrophenyl)-4H-chromen-4-one]
0.122 | O=c1c(C(c2ccc([N+](=O)[O-])cc2)n2ccnc2)coc2cc(O)ccc12 (racemic) [4a, 3-((1H-imidazol-1-yl)(4-nitrophenyl)methyl)-7-hydroxy-4H-chromen-4-one]
> 10 | CC/C(=C(\c1ccc(O)cc1)c1ccc(OCCNC)cc1)c1ccccc1 [Endoxifen]
0.5 | O=c1c(C(c2ccccc2)n2ccnc2)coc2ccccc12 (racemic) [3b, 3-((1H-imidazol-1-yl)(phenyl)methyl)-4H-chromen-4-one]
